From US12497408B2, “Tetracyclic compounds and methods for the treatment of Zika virus infection” (priority 2021, dated 2025)

Tested on: ZIKV
Test: ZIKV reporter virus-based antiviral screening on Huh7 cells
Type: cell-based, Zika virus
Details: Huh7 cells infected with recombinant luciferase reporter ZIKV (MOI about 0.1), 48 hrs, luciferase signal
Text: Protocol for ZIKV reporter virus-based antiviral screening on Huh7 cells:
• Human hepatocyte-derived carcinoma cell line (Huh7) 2. Reagents • ViviRen™ Live Cell Substrate (Promega, Cat #E6492) or Nano Glo assay system (Promega: N1130) • White opaque 96-well TC-treated microplates (Corning, Cat #3916) • 96-well Clear V-Bottom TC-treated Microplate (Corning, Cat #3894) • Complete cell culture media: DMEM (Gibco, Cat #10569) supplemented with 10% FBS (HyClone, Cat #SH30071.03IH25-40)+1% MEM Non-Essential Amino Acids Solution 100×(Gibco, Cat #11140050)+1% Penicillin-Streptomycin (10,000 U/mL) (Gibco, Cat #15140122). • Assay media: DMEM media (Gibco, Cat #31053028) supplemented with 2% FBS, 2% GlutaMAX™ Supplement (Gibco Cat #35050061), 1% Sodium Pyruvate solution (Gibco, Cat #11360070), 1% MEM Non-Essential Amino Acids Solution 100× and 1% Penicillin-Streptomycin (10,000 U/mL). • Trypsin-EDTA solution (Gibco, Cat #25200056) 3. Virus • Recombinant ZIKV strain with Renilla luciferase gene (strain FSS-Rlu) or Nano luciferase gene (Strain PRV-Nano, Dakar-Nano) 4. Instruments • BioTek Cytation 5 or other plate-readers for chemiluminescence detection model. • Eppendorf plate centrifuge • Plate shaker • Eppendorf multichannel pipettes Procedures Day 1: Preparation of Cells • Human hepatocyte-derived carcinoma cell line (Huh7) cells were detached from a T-175 flask by using a Trypsin-EDTA solution. The detached cells were suspended in complete culture media in a sterile 50-ml conical tube. • The 50-ml conical tube was centrifuged at 1200×rpm for 3 min at room temperature. • The cells were resuspended in assay media. The cell numbers were counted, and the cells diluted to a density of 3×10^5 cells/ml. • The cells were plated at 50 μl cells per well in White opaque 96-well plates (assay plates). Gently shake the plates to ensure cells to attach to the plate evenly. • The plated cells were incubated in a humidified incubator (37° C. with 5% CO2). Day 2: Infection • 1) Nine serial (2-fold or 3-fold) concentrated compounds were prepared using 90% DMSO solution and DMSO controls in a clear V-bottom 96-well plate (compound plate). • For example:
• 2) The reporter virus stock was diluted to a concentration of 3×10^4 FFU (FFU: focus-forming unit)/ml using the assay media. 200 μl diluted virus per well was aliquoted into a clear V-bottom 96-well plate (mixing plate). • 3) 1 μl above 400×concentrated compound dilutions was added from the compound plate to each well of the mixing plate. The plates were shaken on a plate shaker for 5 min. • 4) 50 μl compound-virus mixture was added into each well of the assay plates (the MOI is about 0.1). The plates were shaken gently by mixing the virus evenly. • An example of the format for assay plate:
• control. • 5) The plates were centrifuged at 1000 rpm for 15 s. • 6) The plates were incubated at 37° C. with 5% CO2 in a humidified incubator for 48 hrs. Day 4: Read Luciferase Signals • 7) The ViviRen™ Live Cell Substrate was diluted in assay media for 3000× folds. 25 μl of diluted substrates was added into each well of the assay plates. • For Nano-Glo assay system, 50 μl diluted substrates (50×fold diluted from the stock in assay buffer) were added. • 8) The plates were incubated at room temperature for 5 min. • 9) Optimally, cell viability is measured using the Promega Cell-titer Glo kit (only used when ZIKV-Rlu was used for infection). • 10) Luciferase signals were read using the Cytation 5 with gain value of 120-150. Data Analysis • a. The luciferase signals from DMSO-treated groups (un-treated controls) were set as 100%. The relative luciferase signals were obtained by normalizing the luciferase signals from each dilution-treated group to that of the controls. • b.

Question: Which EC50 does the source give for `COC(=O)N[C@H](C(=O)N1[C@H](c2nc(Cl)c(-c3cc4c5c(c3)OCc3cc(-c6[nH]c([C@@H]7C[C@@H]8C[C@@H]8N7C(=O)[C@@H](NC(=O)OC)C(C)C)nc6Cl)cc(c3-5)OC4)[nH]2)C[C@@H]2C[C@@H]21)C(C)C` [Compound 11, dimethyl ((2S,2′S)-((1S,1′S,3S,3′S,5S,5′S)-((5,10-dihydrochromeno[5,4,3-cde]chromene-2,7-diyl)bis(4-chloro-1H-imidazole-5,2-diyl))bis(2-azabicyclo[3.1.0]hexane-3,2-diyl))bis(3-methyl-1-oxobutane-1,2-diyl))dicarbamate] here?
Answer: 9.3 nM

Same assay, conditions: Zika virus, Huh-7, 48 h, Huh7 cells infected with recombinant luciferase reporter ZIKV (MOI about 0.1), luciferase signal

Question: With `COC(=O)N[C@H](C(=O)N1C[C@H](C)C[C@H]1c1nc(Cl)c(-c2cc3c4c(c2)OCc2cc(-c5[nH]c([C@@H]6C[C@@H](C)CN6C(=O)[C@@H](NC(=O)OC)C(C)C)nc5Cl)cc(c2-4)OC3)[nH]1)C(C)C` [Compound 1, dimethyl ((2S,2′S)-((3R,3′R,5S,5′S)-((5,10-dihydrochromeno[5,4,3-cde]chromene-2,7-diyl)bis(4-chloro-1H-imidazole-5,2-diyl))bis(3-methylpyrrolidine-5,1-diyl))bis(3-methyl-1-oxobutane-1,2-diyl))dicarbamate] as the compound, how does the EC50 read?
Answer: 4.2 nM

Question: How did the EC50 turn out when `CC[C@H](C)[C@H](NC(=O)OC)C(=O)N1C[C@H](C)C[C@H]1c1nc(Cl)c(-c2cc3c4c(c2)OCc2cc(-c5[nH]c([C@@H]6C[C@@H](C)CN6C(=O)[C@@H](NC(=O)OC)[C@@H](C)CC)nc5Cl)cc(c2-4)OC3)[nH]1` [Compound 2, dimethyl ((2S,2′S,3S,3′S)-((3R,3′R,5S,5′S)-((5,10-dihydrochromeno[5,4,3-cde]chromene-2,7-diyl)bis(4-chloro-1H-imidazole-5,2-diyl))bis(3-methylpyrrolidine-5,1-diyl))bis(3-methyl-1-oxopentane-1,2-diyl))dicarbamate] was run?
Answer: 6.5 nM

Question: How did the EC50 turn out when `COC(=O)N[C@H](C(=O)N1C[C@H](C)C[C@H]1c1nc(Cl)c(-c2cc3c4c(c2)OCc2cc(-c5[nH]c([C@@H]6C[C@@H](C)CN6C(=O)[C@@H](NC(=O)OC)C(C)(C)C(F)(F)F)nc5Cl)cc(c2-4)OC3)[nH]1)C(C)(C)C(F)(F)F` [Compound 3, dimethyl ((2S,2′S)-((3R,3′R,5S,5′S)-((5,10-dihydrochromeno[5,4,3-cde]chromene-2,7-diyl)bis(4-chloro-1H-imidazole-5,2-diyl))bis(3-methylpyrrolidine-5,1-diyl))bis(4,4,4-trifluoro-3,3-dimethyl-1-oxobutane-1,2-diyl))dicarbamate] was run?
Answer: 5.2 nM

Question: Which EC50 does the source give for `COC(=O)N[C@H](C(=O)N1C[C@@H](OC)C[C@H]1c1nc(Cl)c(-c2cc3c4c(c2)OCc2cc(-c5[nH]c([C@@H]6C[C@H](OC)CN6C(=O)[C@@H](NC(=O)OC)C(C)C)nc5Cl)cc(c2-4)OC3)[nH]1)C(C)C` [Compound 4, dimethyl ((2S,2′S)-((3S,3′S,5S,5′S)-((5,10-dihydrochromeno[5,4,3-cde]chromene-2,7-diyl)bis(4-chloro-1H-imidazole-5,2-diyl))bis(3-methoxypyrrolidine-5,1-diyl))bis(3-methyl-1-oxobutane-1,2-diyl))dicarbamate] here?
Answer: 19.2 nM

Question: How did the EC50 turn out when `CC[C@H](C)[C@H](NC(=O)OC)C(=O)N1C[C@@H](OC)C[C@H]1c1nc(Cl)c(-c2cc3c4c(c2)OCc2cc(-c5[nH]c([C@@H]6C[C@H](OC)CN6C(=O)[C@@H](NC(=O)OC)[C@@H](C)CC)nc5Cl)cc(c2-4)OC3)[nH]1` [Compound 5, dimethyl ((2S,2′S,3S,3′S)-((3S,3′S,5S,5′S)-((5,10-dihydrochromeno[5,4,3-cde]chromene-2,7-diyl)bis(4-chloro-1H-imidazole-5,2-diyl))bis(3-methoxypyrrolidine-5,1-diyl))bis(3-methyl-1-oxopentane-1,2-diyl))dicarbamate] was run?
Answer: 12.4 nM

Question: `COC(=O)N[C@H](C(=O)N1C[C@@H](OC)C[C@H]1c1nc(Cl)c(-c2cc3c4c(c2)OCc2cc(-c5[nH]c([C@@H]6C[C@H](OC)CN6C(=O)[C@@H](NC(=O)OC)C(C)(C)C(F)(F)F)nc5Cl)cc(c2-4)OC3)[nH]1)C(C)(C)C(F)(F)F` [Compound 6, dimethyl ((2S,2′S)-((3S,3′S,5S,5′S)-((5,10-dihydrochromeno[5,4,3-cde]chromene-2,7-diyl)bis(4-chloro-1H-imidazole-5,2-diyl))bis(3-methoxypyrrolidine-5,1-diyl))bis(4,4,4-trifluoro-3,3-dimethyl-1-oxobutane-1,2-diyl))dicarbamate] was tested. Which EC50 did it give?
Answer: 4.9 nM

Question: With `COC(=O)N[C@H](C(=O)N1CC(C)(C)C[C@H]1c1nc(Cl)c(-c2cc3c4c(c2)OCc2cc(-c5[nH]c([C@@H]6CC(C)(C)CN6C(=O)[C@@H](NC(=O)OC)C(C)C)nc5Cl)cc(c2-4)OC3)[nH]1)C(C)C` [Compound 7, dimethyl ((2S,2′S)-((5S,5′S)-((5,10-dihydrochromeno[5,4,3-cde]chromene-2,7-diyl)bis(4-chloro-1H-imidazole-5,2-diyl))bis(3,3-dimethylpyrrolidine-5,1-diyl))bis(3-methyl-1-oxobutane-1,2-diyl))dicarbamate] as the compound, how does the EC50 read?
Answer: 4.2 nM

Question: `CC[C@H](C)[C@H](NC(=O)OC)C(=O)N1CC(C)(C)C[C@H]1c1nc(Cl)c(-c2cc3c4c(c2)OCc2cc(-c5[nH]c([C@@H]6CC(C)(C)CN6C(=O)[C@@H](NC(=O)OC)[C@@H](C)CC)nc5Cl)cc(c2-4)OC3)[nH]1` [Compound 8, dimethyl ((2S,2′S,3S,3′S)-((5S,5′S)-((5,10-dihydrochromeno[5,4,3-cde]chromene-2,7-diyl)bis(4-chloro-1H-imidazole-5,2-diyl))bis(3,3-dimethylpyrrolidine-5,1-diyl))bis(3-methyl-1-oxopentane-1,2-diyl))dicarbamate] was tested. Which EC50 did it give?
Answer: 4.4 nM

Question: Which EC50 does the source give for `COC(=O)N[C@H](C(=O)N1CC(C)(C)C[C@H]1c1nc(Cl)c(-c2cc3c4c(c2)OCc2cc(-c5[nH]c([C@@H]6CC(C)(C)CN6C(=O)[C@@H](NC(=O)OC)C(C)(C)C(F)(F)F)nc5Cl)cc(c2-4)OC3)[nH]1)C(C)(C)C(F)(F)F` [Compound 9, dimethyl ((2S,2′S)-((5S,5′S)-((5,10-dihydrochromeno[5,4,3-cde]chromene-2,7-diyl)bis(4-chloro-1H-imidazole-5,2-diyl))bis(3,3-dimethylpyrrolidine-5,1-diyl))bis(4,4,4-trifluoro-3,3-dimethyl-1-oxobutane-1,2-diyl))dicarbamate] here?
Answer: 4.6 nM

Question: Which EC50 does the source give for `COC(=O)N[C@H](C(=O)N1[C@H](c2nc(Cl)c(-c3cc4c5c(c3)OCc3cc(-c6[nH]c([C@@H]7C[C@@H]8C[C@@H]8N7C(=O)[C@@H](NC(=O)OC)C(C)C)nc6Cl)cc(c3-5)OC4)[nH]2)C[C@@H]2C[C@@H]21)C(C)C` [Compound 10, dimethyl ((2S,2′S)-((1S,1′S,3S,3′S,5S,5′S)-((5,10-dihydrochromeno[5,4,3-cde]chromene-2,7-diyl)bis(4-chloro-1H-imidazole-5,2-diyl))bis(2-azabicyclo[3.1.0]hexane-3,2-diyl))bis(3-methyl-1-oxobutane-1,2-diyl))dicarbamate] here?
Answer: 7 nM

Question: Which EC50 does the source give for `COC(=O)N[C@H](C(=O)N1[C@H](c2nc(Cl)c(-c3cc4c5c(c3)OCc3cc(-c6[nH]c([C@@H]7C[C@@H]8C[C@@H]8N7C(=O)[C@@H](NC(=O)OC)C(C)(C)C(F)(F)F)nc6Cl)cc(c3-5)OC4)[nH]2)C[C@@H]2C[C@@H]21)C(C)(C)C(F)(F)F` [Compound 12, dimethyl ((2S,2′S)-((1S,1′S,3S,3′S,5S,5′S)-((5,10-dihydrochromeno[5,4,3-cde]chromene-2,7-diyl)bis(4-chloro-1H-imidazole-5,2-diyl))bis(2-azabicyclo[3.1.0]hexane-3,2-diyl))bis(4,4,4-trifluoro-3,3-dimethyl-1-oxobutane-1,2-diyl))dicarbamate] here?
Answer: 11.9 nM
